Patent US20230023463A1, “COMPOSITION FOR PROMOTING HAIR THICKENING, COMPOSITION FOR SUSTAINING GROWTH PHASE IN HAIR CYCLE AND COMPOSITION FOR PROMOTING VEGF PRODUCTION, COMPOSITION FOR PROMOTING TRANSITION FROM RESTING PHASE TO GROWTH PHASE IN HAIR CYCLE AND COMPOSITION FOR PROMOTING FGF7 PRODUCTION, AND COMPOSITION FOR …” (priority 2020, published 2023)

Key:
Assay type in all cases: cell-based
[1] = system: VEGF production in hair papilla cells; assay: VEGF production in hair papilla cells (ELISA of culture supernatant); settings: human hair papilla cells, cultured 3 days, vs control
Protocol: Using a papilla cell growth medium (PCGM) (Toyobo Co., Ltd.), human hair papilla cells (Toyobo Co., Ltd.) were cultured for 4 days on a collagen-coated dish, and seeded on a collagen-coated 48 well plate at a cell density of 1.2×10^4 cells/0.3 mL/well. The cells were cultured for one day in a carbon dioxide incubator (5 volume % carbon dioxide, 37° C.), and used for the evaluation of the VEGF production amount.
For the evaluation of the VEGF production amount, 20 kinds of amino acids were mixed at the composition shown in Table 1, the components other than amino acids were composed as in Dulbecco's modified Eagle medium (DMEM), glucose was added at 1 g/L, and the resulting medium was used as an evaluation medium.
L-citrulline, L-tryptophan, and L-glutamine were respectively dissolved in the evaluation medium to prepare each solution.
In the above-described hair papilla cell culture medium on the collagen-coated plate, the medium was replaced with the evaluation medium, the above-described respective solutions of L-citrulline, L-tryptophan, and L-glutamine were added at a given concentration, and the cells were cultured for 3 days at 37° C., 5 volume % carbon dioxide (n=4 for L-citrulline, L-tryptophan, and L-glutamine at each addition concentration).
(§1) Then, the supernatant of the culture medium was collected, centrifuged at 1500 rpm, and the supernatant was collected and cryopreserved at −30° C.
Similar culture and treatment were performed without adding each solution of L-citrulline, L-tryptophan, and L-glutamine and used as the control.
The concentration of VEGF in the supernatant of the culture was measured by thawing the collected supernatant and using the VEGF Enzyme-Linked ImmunoSorbent Assay (ELISA) kit (Abcam Plc.).
The measurement results were converted to relative values (%) with the VEGF concentration in the control as 100, and shown as mean±standard error in FIGS. 1 to 3.

[2] = system: human hair papilla cells; assay: Proliferation of hair papilla cells, citrulline (Cell Counting kit-8); settings: 2 mM, cultured one day, P<0.01, FIG. 5
Protocol: In the same manner as in Experimental Example 1, human hair papilla cells were cultured for 4 days, and seeded on a collagen-coated 96 well plate at a cell density of 2.5×10^3 cells/0.1 mL/well. The cells were cultured for one day in a carbon dioxide incubator (5 volume % carbon dioxide, 37° C.), and used for the evaluation of the proliferation of hair papilla cells. For the evaluation of the proliferation of hair papilla cells, the same evaluation medium as used in Experimental Example 1 was used.
L-citrulline was dissolved in the evaluation medium to prepare a solution.
In the above-mentioned hair papilla cell culture medium on the collagen-coated plate, the medium was replaced with the evaluation medium, the above-mentioned solution of L-citrulline was added to a concentration of 2 mM, and the cells were cultured for one day at 37° C., 5 volume % carbon dioxide (n=7).
Then the Cell Counting kit-8 (DOJINDO LABORATORIES) was added to each well by 10 μL, the plate was placed in a carbon dioxide incubator (5 volume % carbon dioxide, 37° C.) for 2 hr, and the absorbance at 450 nm was measured using a microplate reader.
Similar culture and treatment were performed without adding the solution of L-citrulline and used as the control.
The measurement results were converted to relative values (%) with the absorbance in the control as 100, and shown as mean±standard error in FIG. 5.

[3] = system: FGF7 production in hair papilla cells; assay: FGF7 production in hair papilla cells (ELISA of culture supernatant); settings: human hair papilla cells, cultured 3 days, vs control, P<0.05 or P<0.01, FIG. 4
Protocol: In the same manner as in Experimental Example 1, human hair papilla cells were cultured for 4 days, and seeded on a collagen-coated 48 well plate at a cell density of 1.2×10^4 cells/0.3 mL/well. The cells were cultured for one day in a carbon dioxide incubator (5 volume % carbon dioxide, 37° C.), and used for the evaluation of the FGF7 production amount. For the evaluation of the FGF7 production amount, the same evaluation medium as in Experimental Example 1 was used.
L-ornithine was dissolved in the evaluation medium to prepare a solution.
In the above-mentioned hair papilla cell culture medium on the collagen-coated plate, the medium was replaced with the evaluation medium, the above-mentioned solution of L-ornithine was added at a given concentration, and the cells were cultured for 3 days at 37° C., 5 volume % carbon dioxide (n=3 at each addition concentration).
Similar culture and treatment were performed without adding the solution of L-ornithine, and used as the control.
as §1
The concentration of FGF7 in the supernatant of the culture was measured by thawing the collected supernatant and using the FGF7 Enzyme-Linked ImmunoSorbent Assay (ELISA) kit (Abcam Plc.). […]

[4] = system: human hair papilla cells; assay: Proliferation of hair papilla cells, ornithine (Cell Counting kit-8); settings: cultured one day, P<0.05 or P<0.01, FIG. 6
Protocol: In the same manner as in Experimental Example 1, human hair papilla cells were cultured for 4 days, and seeded on a collagen-coated 96 well plate at a cell density of 2.5×10^3 cells/0.1 mL/well. The cells were cultured for one day in a carbon dioxide incubator (5 volume % carbon dioxide, 37° C.), and used for the evaluation of the proliferation of hair papilla cells. For the evaluation of the proliferation of hair papilla cells, a medium having the same amino acid composition as the evaluation medium used in Experimental Example 1 and other components diluted at a ¼ concentration was used as the evaluation medium.
L-ornithine was dissolved in the above-mentioned evaluation medium to prepare a solution. […]
Then the Cell Counting kit-8 (DOJINDO LABORATORIES) was added to each well by 10 μL, the plate was placed in a carbon dioxide incubator (5 volume % carbon dioxide, 37° C.) for 2 hr, and the absorbance at 450 nm was measured using a microplate reader. […]
The measurement results were converted to relative values (%) with the absorbance in the control as 100, and shown as mean±standard error in FIG. 6.

NC(=O)NCCCC(N)C(=O)O [L-citrulline, 2-amino-5-(carbamoylamino)pentanoic acid]
addition concentration at which a significant increase in the VEGF production was observed ([1]; P<0.01 or P<0.001, FIG. 1): not less than 4.56 μM | number of hair papilla cells as compared with the control [2]: significant increase

NC(=O)CCC(N)C(=O)O [L-glutamine, 2-amino-4-carbamoylbutanoic acid]
addition concentration at which a significant increase in the VEGF production was observed ([1]; P<0.01 or P<0.001, FIGS. 2, 3): not less than 0.44 mM

NCCCC(N)C(=O)O [L-ornithine, 2,5-diamino pentanoic acid]
addition concentration at which a significant increase in the FGF7 production amount was observed [3]: not less than 151 μM | number of hair papilla cells as compared with the control ([4]; 756 μM): significant increase | number of hair papilla cells as compared with the control ([4]; 3.7 mM): significant increase

N[C@@H](Cc1c[nH]c2ccccc12)C(=O)O [L-tryptophan, 2-amino-3-(indolyl)propionic acid]
addition concentration at which a significant increase in the VEGF production was observed ([1]; P<0.01 or P<0.001, FIGS. 2, 3): not less than 0.01 mM
